Where two headings read alike, the source gives them in different places.

The values below come from patent US4537729A, “Dimethylphosphoramidates” (Development of Finance Corporation of New Zealand, priority 1981, dated 1985).

For one series, the system named is P388 leukaemia. The experiment in a line: P388 leukaemia in vivo test in mice (i.p.). As to conditions: for ILS (percentage increase in life span): at optimal dose (OD), days 1, 5 and 9, P388 i.p., controls survive 11 days, >20% significant; for Active: at the stated dose, P388 in vivo. Also noted: species or system mouse. The source says: The P388 mouse leukaemia system has been shown by studies at the National Cancer Institute, U.S.A., to be a useful system for detecting agents with antitumour activity against clinical cancer (A. Goldin, J. M. Venditti, J. S. MacDonald, F. M. Muggia, J. E. Henney and V. T. De Vita, Europ.J.Cancer 17, 129-142 (1981).
Tumour P388 i.p.--P388 cells were obtained as frozen stocks from Mason Research Inc., U.S.A., and passaged introperitoneally according to standard methods (Cancer Chemother.Rep. 3, Part 3, page 9 (1972) in DBA-2 mice of either sex. Groups of six Fl hybrid mice (DBA-2 male x C57 Bl female, g weight 20±1 g) were injected intraperitoneally with 10^6 cells on day 0.
O.D.=optimal drug dose (in milligrams per kilogram), administered as a solution in 0.1 ml of 30% v/v ethyl alcohol in water on days 1, 5 and 9 after tumour inoculation. The drug is administered as a soluble acid addition salt.
ILS=percentage increase in life span of treated animals over that of groups of control animals injected with tumour alone. The average survival of control mice was 11 days. Values of ILS greater than 20% are considered statistically significant.
"Y. implies a significant value of drug activity at the stated dose.".

Series [1] in a line: Reversed-phase partition chromatography (Rm). Type of series: physicochemical. The following applies: lipophilic-hydrophilic balance, linearly related to 1-octanol/water partition coefficients. The text has this:
Rm=a measure of the compound's lipophilic-hydrophilic balance from reversed-phase partition chromatography. Rm is linearly related to partition coefficients obtained in the 1-octanol/water system.

Another series concerns L1210 tumour cells. Nature of the series: L1210 murine leukaemia cell culture, growth inhibition over 70 hours. It is filed as cell-based. As to conditions: Mus musculus.
The test system of a further series is alcaligenes viscolactis. Nature of the series: Antibacterial activity. It is filed as cell-based.
For a further series, the system named is streptococcus faecalis. Nature of the series: Antibacterial activity. Type of series: cell-based.
For series [2], the system named is micrococcus lysodeikticus. Nature of the series: Antibacterial activity. It is filed as cell-based.
The test system of the next series is bacillus subtilis. Nature of the series: Antibacterial activity. It is filed as cell-based.
The test system of another series is eschereichia coli. Nature of the series: Antibacterial activity. It is filed as cell-based.
In another series the test system is xanthomonas phaseoli. Nature of the series: Antibacterial activity. Type of series: cell-based.
For a further series, the system named is aerobacter aerogenes. Nature of the series: Antibacterial activity. Type of series: cell-based.
Another series concerns sarcina lutea. Nature of the series: Antibacterial activity. It is filed as cell-based.
Another series concerns staphylococcus aureus. The experiment in a line: Antibacterial activity. Type of series: cell-based.
For another series, the system named is neisseria catarrhalis. Nature of the series: Antibacterial activity. Type of series: cell-based.
For a further series, the system named is tumour. The following applies: literature; cited from earlier work.

On to `COc1cc(NP(=O)(OC)OC)ccc1Nc1c2ccccc2nc2c(C)cccc12` [Compound 14], for which, in the series with P388 leukaemia, the “ILS (percentage increase in life span)” value is reported as 106% and the Active entry is given as “Y”. In [1], this molecule returned a chromatographic logP of 0.44. The IC50 with L1210 tumour cells (L1210, 70 h, read-out: ID50) is 0.018 µM.
Regarding `COP(=O)(Nc1ccc(Nc2c3ccccc3nc3cc(Cl)ccc23)cc1)OC` [Compound 4], in the series on P388 leukaemia, the “ILS (percentage increase in life span)” value is reported as 54% and the Active entry was “Y”. Also, in [1], the chromatographic logP was determined as 0.46. Moreover, in the series with L1210 tumour cells (L1210, 70 h, read-out: ID50), the IC50 amounted to 0.016 µM.
The corresponding values for `COc1cc(NP(=O)(OC)OC)ccc1Nc1c2ccccc2nc2cc(Br)ccc12` [Compound 7] are 83%, “Y”, 0.57 and 0.0049 µM.
With `COc1cccc2c(Nc3ccc(NP(=O)(OC)OC)cc3)c3ccccc3nc12` [Compound 9], in the series with P388 leukaemia, the “ILS (percentage increase in life span)” value is 44% and the Active result is “Y”. The chromatographic logP in [1] was 0.33. In the series with L1210 tumour cells (L1210, 70 h, read-out: ID50), the IC50 came to 0.02 µM.
The corresponding values for `COP(=O)(Nc1ccc(Nc2c3ccccc3nc3cc(Br)ccc23)cc1)OC` [Compound 6] are 76%, “Y”, 0.47 and 0.015 µM.
As for `COP(=O)(Nc1ccc(Nc2c3ccccc3nc3ccccc23)cc1)OC` [Compound 1], the antibacterial activity entry (with alcaligenes viscolactis; in the series with streptococcus faecalis; in series [2]; with bacillus subtilis; with eschereichia coli; in the series with xanthomonas phaseoli) was “active” throughout. Also, the antibacterial activity entry with aerobacter aerogenes, in the series with sarcina lutea, in the series on staphylococcus aureus and in the series on neisseria catarrhalis was “active” in each case. Besides, in the series with P388 leukaemia, the “ILS (percentage increase in life span)” value was determined as 74%. Besides, in the series on P388 leukaemia, the Active result is “Y”. In series [1], this molecule registered a chromatographic logP of 0.31. The IC50 in the series with L1210 tumour cells (L1210, 70 h, read-out: ID50) was 0.015 µM.
For `CNC(=O)c1cccc2c(Nc3ccc(NP(=O)(OC)OC)cc3OC)c3ccc(Cl)cc3nc12` [Compound 15], in the series with P388 leukaemia, the “ILS (percentage increase in life span)” value worked out at 79% and the Active result is on record as “Y”. The chromatographic logP in series [1] was found to be 0.54. Also, in the series with L1210 tumour cells (L1210, 70 h, read-out: ID50), the IC50 came out at 0.05 µM.
For `COP(=O)(Nc1ccc(Nc2c3ccccc3nc3c(C)cccc23)cc1)OC` [Compound 13], in the series with P388 leukaemia, the “ILS (percentage increase in life span)” value was found to be 111% and the Active result is “Y”. Further, the chromatographic logP in [1] turned out to be 0.46. Besides, the IC50 in the series with L1210 tumour cells (L1210, 70 h, read-out: ID50) amounted to 0.0089 µM.
The corresponding values for `CNC(=O)c1cccc2c(Nc3ccc(NP(=O)(OC)OC)cc3OC)c3ccccc3nc12` [Compound 12] are 118%, “Y”, 0.28 and 0.018 µM.
The matching figures for `COc1cc(NP(=O)(OC)OC)ccc1Nc1c2ccccc2nc2c(OC)cccc12` [Compound 10]: 76%, “Y”, 0.47 and 0.012 µM.
The corresponding values for `CNC(=O)c1cccc2c(Nc3ccc(NP(=O)(OC)OC)cc3)c3ccccc3nc12` [Compound 11] are 38%, “Y”, 0.18 and 0.097 µM.
In the case of `COP(=O)(Nc1ccc(Nc2c3ccccc3nc3cc(C)ccc23)cc1)OC` [Compound 3], in the series with P388 leukaemia, the “ILS (percentage increase in life span)” value came to 80% and the Active result is “Y”. The molecule further showed a chromatographic logP in series [1] of 0.49. Further, the IC50 in the series on L1210 tumour cells (L1210, 70 h, read-out: ID50) is 0.0068 µM.
The matching figures for `COP(=O)(Nc1ccc(Nc2c3ccccc3nc3cc([N+](=O)[O-])ccc23)cc1)OC` [Compound 8]: 22%, “Y”, 0.14 and 0.074 µM.
The corresponding values for `COP(=O)(Nc1ccc(Nc2c3cccc(C)c3nc3c(C)cccc23)cc1)OC` [Compound 16] are 109%, “Y”, 0.37 and 0.017 µM.
As for `COc1cc(NS(C)(=O)=O)ccc1Nc1c2ccccc2nc2ccccc12` [Compound 18, 4'-(9-acridinylamino)methanesulphon-m-anisidide, reference compound], in the series with P388 leukaemia, the “ILS (percentage increase in life span)” value amounted to 78% and the Active result is “Y”.
Regarding `COc1cc(NP(=O)(OC)OC)ccc1Nc1c2ccccc2nc2ccccc12` [Compound 2], in the series with P388 leukaemia, the “ILS (percentage increase in life span)” value turned out to be 67% and the Active result is listed as “Y”. The molecule also yielded a chromatographic logP in series [1] of 0.47. In addition, the IC50 in the series with L1210 tumour cells (L1210, 70 h, read-out: ID50) worked out at 0.07 µM.
In the case of `CS(=O)(=O)Nc1ccc(Nc2c3ccccc3nc3ccccc23)cc1` [Compound 17, 4'-(9-acridinylamino)methanesulphonanilide, reference compound], in the series with P388 leukaemia, the “ILS (percentage increase in life span)” value was 93% and the Active result is given as “Y”. Further, the “antitumour effect (earlier work)” value in the series on tumour was “marked antitumour effect”. Also, the IC50 with L1210 tumour cells (murine L1210 leukaemia cells, 70 hours, counted cell number reduced by 50%, read-out: ID50 (the source's name)) was found to be 0.035 µM.
As to `COc1cc(NP(=O)(OC)OC)ccc1Nc1c2ccccc2nc2cc(Cl)ccc12` [Compound 5], in the series with P388 leukaemia, the “ILS (percentage increase in life span)” value is 78% and the Active entry is “Y”. The same molecule came in with a chromatographic logP in [1] of 0.61. For the same molecule, in the series on L1210 tumour cells (L1210, 70 h, read-out: ID50), the IC50 was found to be 0.012 µM.
